Experiments:
Experiment in all cases: Test C greenhouse herbicide test, pre- and postemergence
Type in all cases: in vivo
[1] = system: nutsedge, yellow (yellow nutsedge, Cyperus esculentus)
In short: (§1)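 Visual ratings on a 0 to 100 scale (0 = no effect, 100 = complete control) versus untreated controls, scored 13–15 d after treatment. Soil-applied preemergence to seeded loam/sand; foliar postemergence to 1- to 4-leaf plants (2–18 cm) in peat-vermiculite mix; compounds formulated in solvent plus surfactant.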

[2] = system: barnyardgrass (Echinochloa crus-galli)
In short: as §1

[3] = system: velvetleaf (Abutilon theophrasti)
In short: as §1

[4] = system: corn (Zea mays)
In short: as §1

[5] = system: ragweed (common ragweed, Ambrosia elatior)
In short: as §1

[6] = system: blackgrass (Alopecurus myosuroides)
In short: as §1

[7] = system: pigweed (Amaranthus retroflexus)
In short: as §1

[8] = system: foxtail, giant (giant foxtail, Setaria faberii)
In short: as §1

[9] = system: lambsquarters (Chenopodium album)
In short: as §1

[10] = system: waterhemp (common waterhemp, Amaranthus rudis)
In short: as §1

[11] = system: ryegrass, Italian (Italian ryegrass, Lolium multiflorum)
In short: as §1

[12] = system: wheat (winter wheat, Triticum aestivum)
In short: as §1

[13] = system: johnsongrass (Sorghum halepense)
In short: as §1

[14] = system: morningglory (Ipomoea coccinea)
In short: as §1

[15] = system: soybean (Glycine max)
In short: as §1

[16] = system: galium (catchweed bedstraw, Galium aparine)
In short: as §1

[17] = Postemergence, 125 g ai/ha, scale 0 to 100, 0 is no effect, 100 is complete control
[18] = Postemergence, 250 g ai/ha, scale 0 to 100, 0 no effect, 100 complete control, 13 to 15 d
[19] = Preemergence, 31 g ai/ha, scale 0 to 100, 0 is no effect, 100 is complete control
[20] = Preemergence, 62 g ai/ha, scale 0 to 100, 0 is no effect, 100 is complete control
[21] = Preemergence, 125 g ai/ha, scale 0 to 100, 0 is no effect, 100 is complete control
[22] = Preemergence, 250 g ai/ha, scale 0 to 100 (0 no effect, 100 complete control)
[23] = postemergence, 62 g ai/ha, scale 0 to 100, 0 no effect, 100 complete control
[24] = Postemergence, 31 g ai/ha, 0 to 100 scale (0 no effect, 100 complete control)

Compound: COC(=O)Oc1c(C)nn(C)c(=O)c1-c1c(C)sc2c(C)cc(C)cc12 [Compound 81]
- Plant response rating, Nutsedge, Yellow [1, 17]: 90
- Plant response rating, Nutsedge, Yellow [1, 18]: 90
- Plant response rating, Nutsedge, Yellow [1, 19]: 60
- Plant response rating, Nutsedge, Yellow [1, 20]: 70
- Plant response rating, Nutsedge, Yellow [1, 21]: 80
- Nutsedge, Yellow plant response rating [1, 22]: 95
- Nutsedge, Yellow plant response rating [1, 23]: 85
- Barnyardgrass plant response rating [2, 24]: 25
- Plant response rating, Barnyardgrass [2, 17]: 35
- Plant response rating, Barnyardgrass [2, 18]: 60
- Plant response rating, Barnyardgrass [2, 19]: 30
- Plant response rating, Barnyardgrass [2, 20]: 70
- Plant response rating, Barnyardgrass [2, 21]: 80
- Barnyardgrass plant response rating [2, 22]: 98
- Barnyardgrass plant response rating [2, 23]: 35
- Plant response rating, Velvetleaf [3, 17]: 90
- Plant response rating, Velvetleaf [3, 18]: 90
- Plant response rating, Velvetleaf [3, 19]: 35
- Plant response rating, Velvetleaf [3, 20]: 65
- Plant response rating, Velvetleaf [3, 21]: 85
- Velvetleaf plant response rating [3, 22]: 98
- Velvetleaf plant response rating [3, 23]: 85
- Corn plant response rating [4, 24]: 0
- Plant response rating, Corn [4, 17]: 10
- Plant response rating, Corn [4, 18]: 0
- Plant response rating, Corn [4, 19]: 0
- Plant response rating, Corn [4, 20]: 10
- Plant response rating, Corn [4, 21]: 20
- Corn plant response rating [4, 22]: 30
- Corn plant response rating [4, 23]: 5
- Plant response rating, Ragweed [5, 17]: 70
- Plant response rating, Ragweed [5, 18]: 85
- Plant response rating, Ragweed [5, 19]: 85
- Plant response rating, Ragweed [5, 20]: 95
- Plant response rating, Ragweed [5, 21]: 95
- Ragweed plant response rating [5, 22]: 98
- Ragweed plant response rating [5, 23]: 75
- Blackgrass plant response rating [6, 24]: 60
- Plant response rating, Blackgrass [6, 17]: 90
- Plant response rating, Blackgrass [6, 18]: 90
- Plant response rating, Blackgrass [6, 19]: 60
- Plant response rating, Blackgrass [6, 20]: 80
- Plant response rating, Blackgrass [6, 21]: 90
- Blackgrass plant response rating [6, 22]: 90
- Blackgrass plant response rating [6, 23]: 85
- Plant response rating, Pigweed [7, 17]: 85
- Plant response rating, Pigweed [7, 18]: 90
- Plant response rating, Pigweed [7, 19]: 98
- Plant response rating, Pigweed [7, 20]: 95
- Plant response rating, Pigweed [7, 21]: 95
- Pigweed plant response rating [7, 22]: 100
- Pigweed plant response rating [7, 23]: 85
- Plant response rating, Foxtail, Giant [8, 17]: 90
- Plant response rating, Foxtail, Giant [8, 18]: 90
- Plant response rating, Foxtail, Giant [8, 19]: 80
- Plant response rating, Foxtail, Giant [8, 20]: 98
- Plant response rating, Foxtail, Giant [8, 21]: 98
- Foxtail, Giant plant response rating [8, 22]: 100
- Foxtail, Giant plant response rating [8, 23]: 85
- Plant response rating, Lambsquarters [9, 17]: 98
- Plant response rating, Lambsquarters [9, 18]: 100
- Plant response rating, Lambsquarters [9, 19]: 75
- Plant response rating, Lambsquarters [9, 20]: 90
- Plant response rating, Lambsquarters [9, 21]: 85
- Lambsquarters plant response rating [9, 22]: 95
- Lambsquarters plant response rating [9, 23]: 95
- Plant response rating, Waterhemp [10, 17]: 85
- Plant response rating, Waterhemp [10, 18]: 80
- Plant response rating, Waterhemp [10, 19]: 85
- Plant response rating, Waterhemp [10, 20]: 85
- Plant response rating, Waterhemp [10, 21]: 90
- Waterhemp plant response rating [10, 22]: 100
- Waterhemp plant response rating [10, 23]: 60
- Plant response rating, Ryegrass, Italian [11, 17]: 90
- Plant response rating, Ryegrass, Italian [11, 18]: 90
- Plant response rating, Ryegrass, Italian [11, 19]: 80
- Plant response rating, Ryegrass, Italian [11, 20]: 90
- Plant response rating, Ryegrass, Italian [11, 21]: 90
- Ryegrass, Italian plant response rating [11, 22]: 90
- Ryegrass, Italian plant response rating [11, 23]: 85
- Plant response rating, Wheat [12, 17]: 0
- Plant response rating, Wheat [12, 18]: 0
- Plant response rating, Wheat [12, 19]: 0
- Plant response rating, Wheat [12, 20]: 0
- Plant response rating, Wheat [12, 21]: 0
- Wheat plant response rating [12, 22]: 0
- Wheat plant response rating [12, 23]: 0
- Plant response rating, Johnsongrass [13, 17]: 5
- Plant response rating, Johnsongrass [13, 18]: 70
- Plant response rating, Johnsongrass [13, 19]: 25
- Plant response rating, Johnsongrass [13, 20]: 5
- Plant response rating, Johnsongrass [13, 21]: 45
- Johnsongrass plant response rating [13, 22]: 98
- Johnsongrass plant response rating [13, 23]: 5
- Plant response rating, Morningglory [14, 17]: 100
- Plant response rating, Morningglory [14, 18]: 98
- Plant response rating, Morningglory [14, 19]: 80
- Plant response rating, Morningglory [14, 20]: 85
- Plant response rating, Morningglory [14, 21]: 90
- Morningglory plant response rating [14, 22]: 95
- Morningglory plant response rating [14, 23]: 100
- Plant response rating, Soybean [15, 17]: 5
- Plant response rating, Soybean [15, 18]: 0
- Plant response rating, Soybean [15, 19]: 0
- Plant response rating, Soybean [15, 20]: 100
- Plant response rating, Soybean [15, 21]: 0
- Soybean plant response rating [15, 22]: 0
- Soybean plant response rating [15, 23]: 0
- Plant response rating, Galium [16, 17]: 95
- Plant response rating, Galium [16, 18]: 95
- Plant response rating, Galium [16, 19]: 90
- Plant response rating, Galium [16, 20]: 95
- Plant response rating, Galium [16, 21]: 95
- Galium plant response rating [16, 22]: 95
- Galium plant response rating [16, 23]: 95

— US10597388B2, “Pyridazinone herbicides” (FMC CORPORATION, priority 2014, dated 2020)
